Experimental data: ChEMBL document CHEMBL4251596, “Hetero-Diels-Alder reactions of novel 3-triazolyl-nitrosoalkenes as an approach to functionalized 1,2,3-triazoles with antibacterial profile” (Eur J Med Chem, 2018)
In brackets after ≈: the same amount, converted by molar mass. Activity calls are given as the source filed them. The calls are words filed in the database; no cut-off is given here.

How the values were obtained:
[1] = system: Proteus mirabilis; assay: Antibacterial activity against Proteus mirabilis ATCC 15290 assessed as diameter of inhibition at 30 ug/disk after 24 hrs by disk diffusion assay (reference value: 0 mm); type: functional; conditions: ATCC 15290, 24 h, read-out: DIZ
[2] = (§1) Hemolytic activity in human erythrocytes at 10 to 200 ug/ml after 3 hrs relative to control; type: ADME, cell-based, Erythrocyte; conditions: erythrocytes, read-out: Activity
[3] = system: Serratia marcescens; assay: Antibacterial activity against Serratia marcescens ATCC 14756 assessed as diameter of inhibition at 30 ug/disk after 24 hrs by disk diffusion assay (reference value: 0 mm); type: functional; conditions: ATCC 14756, 24 h, read-out: DIZ
[4] = system: Staphylococcus epidermidis; assay: Antibacterial activity against Staphylococcus epidermidis ATCC 12228 after 24 hrs by microdilution assay; type: functional; conditions: ATCC 12228, 24 h
[5] = system: Staphylococcus aureus; assay: Antibacterial activity against methicillin-resistant Staphylococcus aureus BMB9393 assessed as diameter of inhibition at 30 ug/disk after 24 hrs by disk diffusion assay (reference value: 0 mm); type: functional; conditions: BMB9393, 24 h, read-out: DIZ
[6] = system: Staphylococcus aureus; assay: Selectivity index, ratio of MIC for antibacterial activity against methicillin-resistant Staphylococcus aureus BMB9393 to MIC for antibacterial activity against Staphylococcus aureus ATCC 25923; type: functional
[7] = system: Staphylococcus simulans; assay: Antibacterial activity against Staphylococcus simulans ATCC 27851 assessed as diameter of inhibition at 30 ug/disk after 24 hrs by disk diffusion assay (reference value: 0 mm); type: functional; conditions: ATCC 27851, 24 h, read-out: DIZ
[8] = system: Staphylococcus epidermidis; assay: Antibacterial activity against Staphylococcus epidermidis ATCC 12228 assessed as diameter of inhibition at 30 ug/disk after 24 hrs by disk diffusion assay (reference value: 0 mm); type: functional; conditions: ATCC 12228, 24 h, read-out: DIZ
[9] = system: Staphylococcus aureus; assay: Antibacterial activity against methicillin-resistant Staphylococcus aureus BMB9393 after 24 hrs by microdilution assay; type: functional; conditions: BMB9393, 24 h
[10] = system: Staphylococcus aureus; assay: Antibacterial activity against Staphylococcus aureus ATCC 25923 assessed as diameter of inhibition at 30 ug/disk after 24 hrs by disk diffusion assay (reference value: 0 mm); type: functional; conditions: ATCC 25923, 24 h, read-out: DIZ
[11] = system: Pseudomonas aeruginosa; assay: Antibacterial activity against Pseudomonas aeruginosa ATCC 27853 assessed as diameter of inhibition at 30 ug/disk after 24 hrs by disk diffusion assay (reference value: 0 mm); type: functional; conditions: ATCC 27853, 24 h, read-out: DIZ
[12] = system: Staphylococcus simulans; assay: Antibacterial activity against Staphylococcus simulans ATCC 27851 after 24 hrs by microdilution assay; type: functional; conditions: ATCC 27851, 24 h
[13] = system: Enterococcus faecalis; assay: Antibacterial activity against Enterococcus faecalis ATCC 29212 assessed as diameter of inhibition at 30 ug/disk after 24 hrs by disk diffusion assay (reference value: 0 mm); type: functional; conditions: ATCC 29212, 24 h, read-out: DIZ
[14] = Selectivity index, ratio of MIC for antibacterial activity against methicillin-resistant Staphylococcus aureus BMB9393 to MIC for antibacterial activity against Staphylococcus simulans ATCC 27851; type: functional
[15] = system: Staphylococcus aureus; assay: Antibacterial activity against methicillin-resistant Staphylococcus aureus BMB9393 at 1/2 and 1/4 MIC after 24 hrs; type: functional, organism-based
[16] = system: Staphylococcus aureus; assay: Antibacterial activity against Staphylococcus aureus ATCC 25923 after 24 hrs by microdilution assay; type: functional; conditions: ATCC 25923, 24 h
[17] = system: Staphylococcus aureus; assay: Antibiofilm activity against methicillin-resistant Staphylococcus aureus BMB9393 at 1/2 and 1/4 MIC after 24 hrs by crystal violet based assay; type: functional
[18] = Selectivity index, ratio of MIC for antibacterial activity against methicillin-resistant Staphylococcus aureus BMB9393 to MIC for antibacterial activity against Staphylococcus epidermidis ATCC 12228; type: functional
[19] = system: Klebsiella pneumoniae; assay: Antibacterial activity against Klebsiella pneumoniae ATCC 4352 assessed as diameter of inhibition at 30 ug/disk after 24 hrs by disk diffusion assay (reference value: 0 mm); type: functional; conditions: ATCC 4352, 24 h, read-out: DIZ
[20] = system: Enterobacter cloacae; assay: Antibacterial activity against Enterobacter cloacae ATCC 23355 assessed as diameter of inhibition at 30 ug/disk after 24 hrs by disk diffusion assay (reference value: 0 mm); type: functional; conditions: ATCC 23355, 24 h, read-out: DIZ
[21] = system: Erythrocyte; assay: as §1; type: ADME, cell-based; conditions: erythrocyte, 3 h

Compound | zone of inhibition at 30 µg/disc [1] | zone of inhibition at 30 µg/disc [3] | zone of inhibition at 30 µg/disc [5] | zone of inhibition at 30 µg/disc [7] | zone of inhibition at 30 µg/disc [8] | zone of inhibition at 30 µg/disc [10] | zone of inhibition at 30 µg/disc [11] | zone of inhibition at 30 µg/disc [13] | zone of inhibition at 30 µg/disc [19] | zone of inhibition at 30 µg/disc [20] | Activity [21] | other results
CCC(CC)(c1ccc[nH]1)c1ccc(C/C(=N\O)c2cn(-c3ccc(Cl)cc3)nn2)[nH]1 | 0 mm | 0 mm | 8 mm | 10 mm | 12 mm | 11 mm | 0 mm | 0 mm | 0 mm | 0 mm | – | hemolysis at 3 h [2]: < 10%; MIC [4]: 32 µg/mL (≈ 73.2 µM); Selectivity Index [6]: 8; MIC [9]: 256 µg/mL (≈ 586 µM); MIC [12]: 32 µg/mL (≈ 73.2 µM); Selectivity Index [14]: 8; Activity [15]: Active; MIC [16]: 32 µg/mL (≈ 73.2 µM); Activity [17]: 73 - 76%; Selectivity Index [18]: 8
O/N=C(\Cc1ccc[nH]1)c1cn(-c2ccc(Cl)cc2)nn1 | 0 mm | 0 mm | 0 mm | 0 mm | 0 mm | 0 mm | 0 mm | 0 mm | 0 mm | 0 mm | – | –
CCC(CC)(c1ccc(C/C(=N\O)c2cn(-c3ccc(Cl)cc3)nn2)[nH]1)c1ccc(C/C(=N\O)c2cn(-c3ccc(Cl)cc3)nn2)[nH]1 | 0 mm | 0 mm | 0 mm | 0 mm | 0 mm | 0 mm | 0 mm | 0 mm | 0 mm | 0 mm | – | –
CC1(C)S[C@@H]2[C@H](NC(=O)Cc3ccccc3)C(=O)N2[C@H]1C(=O)O [PENICILLIN G] | – | – | – | – | – | – | – | – | – | – | Non-Toxic | –
O=[N+]([O-])c1ccc(-n2cc(/C(Cc3ccc[nH]3)=N/O)nn2)cc1 | 0 mm | 0 mm | 0 mm | 0 mm | 0 mm | 0 mm | 0 mm | 0 mm | 0 mm | 0 mm | – | –
O/N=C(/CO/N=C(\Cc1c[nH]c2ccccc12)c1cn(-c2ccc(Cl)cc2)nn1)c1cn(-c2ccc(Cl)cc2)nn1 | 0 mm | 0 mm | 0 mm | 0 mm | 0 mm | 0 mm | 0 mm | 0 mm | 0 mm | 0 mm | – | –
O=C(O)c1cn(C2CC2)c2cc(N3CCNCC3)c(F)cc2c1=O [CIPROFLOXACIN] | 39 mm | 29 mm | – | – | – | – | 37 mm | – | 28 mm | – | Non-Toxic | –
COc1ccc(-n2cc(/C(Cc3ccc[nH]3)=N/O)nn2)cc1 | 0 mm | 0 mm | 0 mm | 0 mm | 0 mm | 0 mm | 0 mm | 0 mm | 0 mm | 0 mm | – | –
O/N=C(\Cc1ccc[nH]1)c1cn(-c2ccccc2)nn1 | 0 mm | 0 mm | 0 mm | 0 mm | 0 mm | 0 mm | 0 mm | 0 mm | 0 mm | 0 mm | – | –
CN[C@H](CC(C)C)C(=O)N[C@H]1C(=O)N[C@@H](CC(N)=O)C(=O)N[C@H]2C(=O)N[C@H]3C(=O)N[C@H](C(=O)N[C@H](C(=O)O)c4cc(O)cc(O)c4-c4cc3ccc4O)[C@H](O)c3ccc(c(Cl)c3)Oc3cc2cc(c3O[C@@H]2O[C@H](CO)[C@@H](O)[C@H](O)[C@H]2O[C@H]2C[C@](C)(N)[C@H](O)[C@H](C)O2)Oc2ccc(cc2Cl)[C@H]1O [VANCOMYCIN] | – | – | 13 mm | 20 mm | 17 mm | 15 mm | – | 18 mm | – | – | Non-Toxic | MIC [12]: 1 µg/mL (≈ 0.69 µM); Activity [17]: Active
